# Reference: publication PMC8626775, “Anti-schistosomal activities of quinoxaline-containing compounds: From hit identification to lead optimisation” (European Journal of Medicinal Chemistry, 2021)
# Where “and” joins values, the source holds several entries; their conditions need not be identical. Equal values may be shown once. Entries after “also recorded” stand apart in the source; their conditions may differ. Read-outs that look alike come from different tables or passages of the source.
# Assays:
# [1] = tested on: S. mansoni adult worms; assay: S. mansoni adult worm motility screen (WormassayGP2), 72 h; format: cell-based, Schistosoma mansoni; conditions: for EC50: Schistosoma mansoni
# Description: Mice (Mus musculus HsdOLa:TO - Tuck Ordinary; Envigo, UK) were used for the mammalian-specific propagation of the S. mansoni life cycle. Experimental animals were infected with 4000 or 180 S. mansoni cercariae/mouse and perfused three- or seven-weeks post-infection to obtain S. mansoni juvenile or adult worms, respectively. Preparation steps following perfusion have been described previously. Briefly, the parasite material was washed three times with pre-warmed adult worm media (DMEM (Gibco, Paisley, UK) supplemented with 10% (v/v) Fetal Calf Serum (FCS, Gibco, Paisley, UK), 1% (v/v) L-glutamine (Gibco, Paisley, UK) and an antibiotic mixture (150 Units/ml penicillin and 150 μg/ml streptomycin; Gibco, UK)) to remove residual host contamination and incubated in a humidified environment containing 5% CO2 at 37 °C for at least 1 h.
# For the evaluation of anti-schistosomal activity on the adult stage of the parasite, 7-wk old worms were transferred into 48 well tissue culture plates (1–3 worm pairs/well, in duplicate). […] DMSO (0.5%) and praziquantel (10 μM in 0.5% DMSO) were also included as negative and positive control treatments. Treated adult worms were incubated for 72 h in a humidified environment containing 5% CO2 at 37 °C. Parasite motility after compound treatment was assessed by a digital image processing-based system (WormassayGP2), modified after Wormassay. Following compound-parasite co-incubation, eggs were collected, fixed in formalin (10% v/v formaldehyde) and enumerated aiming to collect further information on any compound-induced effects on parasite fecundity and IVLE production.
# [2] = tested on: S. mansoni schistosomula; assay: S. mansoni schistosomula high-throughput phenotype and motility screen (Roboworm), 72 h; format: cell-based, Schistosoma mansoni; conditions: for EC50: Schistosoma mansoni
# Description: Cercariae derived from the NMRI ([…]) Puerto Rican strain (PR-1) of S. mansoni were shed from two Biomphalaria glabrata strains, the NMRI albino and pigmented outbred strains, under intensified lighting conditions (1 h of incubation at 26 °C). Cercariae were then mechanically transformed into schistosomula as previously described.
# High-throughput screening (HTS) of selected compounds was conducted as previously described. Briefly, newly transformed schistosomula were distributed in a 384-well tissue culture plate (PerkinElmer, cat 6007460, seeding density of 120 parasites/well). Each compound (at a single concentration or two-fold titrations) was transferred into individual wells alongside the positive and negative controls (AUR at 10 μM final concentration in 0.625% DMSO and 0.625% DMSO, respectively). Schistosomula/compound co-cultures were then incubated at 37 °C for 72 h in a humidified atmosphere containing 5% CO2. Following the co-culture period, automatic assessment of compound-induced schistosomula motility and phenotypic changes were conducted with the high-content imaging platform Roboworm using the image analysis model previously described by Paveley et al..
# [3] = tested on: adult S. japonicum male worms; assay: In vitro screening of S. japonicum adults at 100 nM (WormAssay motility, descriptors, severity score); format: cell-based, Schistosoma japonicum; parameters: key to DESCRIPTORS 48 h / DESCRIPTORS 72 h: Dark = dark; S = Slow; S-uncoord = uncoordinated slow movements; O-uncoord = uncoordinated fast movements; On sides = male worms are not adhering to dish with ventral sucker; Shrunk = worms are not flexing and are smaller than usual; Teg damage = outer surface (tegument of the worm) is damaged; Deg= degenerating; D = Dead; conditions: for Effect on S. japonicum adult male worms: 5, 24, 48 and 72 h; for SEVERITY SCORES 5 h / SEVERITY SCORES 24 h / SEVERITY SCORES 48 h / SEVERITY SCORES 72 h: max = 4, one line per replicate
# Description: (§1) For each species, parasite recovery involved reverse perfusion of the hepatic portal and mesenteric system using DMEM (Fisher Scientific). Parasites were washed six times with Basch 169 medium supplemented with 100 U/ml penicillin and 100 μg/ml streptomycin before manually distributing approximately 5 males per well (on occasion 1 or 2 females might also be present) of a 24-well plate (Corning Costar 3524). […] The next morning, a final concentration of 100 nM compound (in 1 μL DMSO) was added to each well and the final volume made up to 2 ml with Basch 169 medium supplemented with antibiotics and FBS. Each compound was tested in triplicate (except for some instances tested in duplicate). […] The phenotypic characterisation of compound effects focused on male worms due to the greater range of their motility characteristics that include flexing, bending, stretching, sucker walking and adherence, compared to the more sedentary female worms. In addition to descriptors, WormAssay, as adapted for the schistosome, was used to measure average worm motility per well [72, 73].
# [4] = tested on: Adult S. haematobium worms; assay: In vitro screening of S. haematobium adults at 100 nM (WormAssay motility, descriptors, severity score); format: cell-based, Schistosoma haematobium
# Description: as §1
# [5] = 72 h, Table 1, 72 h, two dose response titrations (0.313–10 μM), 95% CI in brackets, read-out: Activity on schistosomula (EC50, μM - 72 h) Motility
# [6] = 72 h, Table 1, 72 h, two dose response titrations (0.313–10 μM), 95% CI in brackets, read-out: Activity on schistosomula (EC50, μM - 72 h) Phenotype
# [7] = 72 h, Table 1, mean of phenotype and motility EC50, 72 h, read-out: Activity on schistosomula (EC50, μM - 72 h) Average
# [8] = Table 2, 72 h, titrations 0.0095–5 μM, WormassayGP2, read-out: Activity on adult worms (EC50, μM - 72 h) Motility
# [9] = 72 h, Table 2, average of phenotype and motility EC50, 72 h, read-out: Activity on schistosomula (EC50, μM - 72 h) Average
# [10] = 72 h, Table 2, motility, 72 h, three replicate titrations (0.313–10 μM), read-out: Activity on schistosomula (EC50, μM - 72 h) M
# [11] = 72 h, Table 2, phenotype, 72 h, three replicate titrations (0.313–10 μM), read-out: Activity on schistosomula (EC50, μM - 72 h) P
# [12] = S. japonicum, one line per replicate
# [13] = Table 4, Series A, read-out: Anti-schistosomal activity EC50 Adult (nM) Motility
# [14] = Table 4, Series A, read-out: Anti-schistosomal activity EC50 Schistosomula (μM) Motility
# [15] = Table 4, Series A, read-out: Anti-schistosomal activity EC50 Schistosomula (μM) Phenotype
SMILES,Effect on adult worm motility at 12.5 and 6.25 μM [1],Activity on schistosomula in the primary screen at 10 μM ([2]; 72 h),"EC50 [2, 5] [µM]","EC50 [2, 6] [µM]","EC50 [2, 7] [µM]","EC50 [1, 8] [µM]","EC50 [2, 9] [µM]","EC50 [2, 10] [µM]","EC50 [2, 11] [µM]",Effect on S. japonicum adult male worms [3],SEVERITY SCORES 5 h ([3]; S. japonicum),"SEVERITY SCORES 24 h ([3]; S. japonicum, 24 h)",SEVERITY SCORES 48 h ([3]; S. japonicum),SEVERITY SCORES 72 h ([3]; S. japonicum),"EC50 [1, 13] [µM]","EC50 [2, 14] [µM]","EC50 [2, 15] [µM]",also measured
FC(F)(F)c1cccc(Nc2nc3ccccc3nc2Nc2cccc(C(F)(F)F)c2)c1 [Compound 11],particularly active,retained activity,1.12,1.38,1.25,–,–,–,–,–,–,–,–,–,–,–,–,"Effect on adult worm motility at 3.15 μM ([1]; 3.15 μM, lowest concentration tested): complete cessation of worm mobility"
COC(=O)c1ccc(Nc2nc3ccc([N+](=O)[O-])cc3nc2Nc2ccc(C(=O)OC)cc2)cc1 [Compound 23],particularly active,retained activity,1.44,1.23,1.33,–,–,–,–,–,–,–,–,–,–,–,–,–
"O=[N+]([O-])c1ccc2nc(NCCc3ccccc3)c(NCCc3ccccc3)nc2c1 [Compound 37, 6-nitro-N2, N3-diphenethylquinoxaline-2,3-diamine]",–,–,–,–,–,0.195,1.84,1.47,2.2,–,–,–,–,–,–,–,–,"EC50 ([1]; Table 3, read-out: Anti-schistosomal activity EC50 (μM) Adult Motility): 0.195 µM; EC50 ([2]; Table 3, read-out: Anti-schistosomal activity EC50 (μM) Schistosomula Motility): 1.47 µM; EC50 ([2]; Table 3, read-out: Anti-schistosomal activity EC50 (μM) Schistosomula Phenotype): 2.2 µM"
Cc1cccc(Nc2nc3ccc([N+](=O)[O-])cc3nc2Nc2cccc(C)c2)c1 [Compound 20],particularly active,retained activity,1.23,1.62,1.42,–,–,–,–,–,–,–,–,–,–,–,–,–
Cc1ccc(Nc2nc3ccccc3nc2Nc2ccc(C)c(C)c2)cc1C [Compound 16],particularly active,retained activity,3.69,5.42,4.55,–,–,–,–,–,–,–,–,–,–,–,–,–
"O=[N+]([O-])c1ccc2nc(Nc3ccc(C(F)(F)F)cc3)c(Nc3ccc(C(F)(F)F)cc3)nc2c1 [Compound 31, 6-nitro-N2, N3-bis(4-(trifluoromethyl)phenyl)quinoxaline-2,3-diamine]",–,–,–,–,–,0.0077,0.31,0.28,0.34,essentially lethal,0,0,4,4,0.0077,0.28,0.34,"Onset time on S. japonicum [3]: ≤ 24 h; DESCRIPTORS 24 h ([3]; S. japonicum, 24 h, one line per replicate): Dark, S, on sides; DESCRIPTORS 48 h [3, 12]: Dying, deg; DESCRIPTORS 72 h [3, 12]: Dying, D; Onset time on S. haematobium [4]: ≤ 24 h; Effect on S. haematobium adult worms ([4]; 5, 24, 48 and 72 h): best activity; SEVERITY SCORES 5 h ([4]; S. haematobium, 5 h, max = 4, one line per replicate): 0; SEVERITY SCORES 24 h ([4]; S. haematobium, 24 h, max = 4, one line per replicate): 2; DESCRIPTORS 24 h ([4]; S. haematobium, 24 h, one line per replicate): S, on sides; also recorded: S, onsides; SEVERITY SCORES 48 h ([4]; S. haematobium, 48 h, max = 4, one line per replicate): 2; DESCRIPTORS 48 h ([4]; S. haematobium, 48 h, one line per replicate): S, on sides; also recorded: S, onsides; SEVERITY SCORES 72 h ([4]; S. haematobium, 72 h, max = 4, one line per replicate): 3; DESCRIPTORS 72 h ([4]; S. haematobium, 72 h, one line per replicate): S, dark on sides"
"O=[N+]([O-])c1ccc2nc(Nc3ccc(Cl)cc3)c(Nc3ccc(Cl)cc3)nc2c1 [Compound 26, N^2, N^3-bis(4-chlorophenyl)-6-nitroquinoxaline-2,3-diamine]",–,–,–,–,–,0.0203,0.41,0.39,0.42,decreased motility starting at 48 h,0,0,1,2 and 1,0.0203,0.39,0.42,"DESCRIPTORS 48 h [3, 12]: S; DESCRIPTORS 72 h [3, 12]: S, on sides and S"
"COc1ccc(Nc2nc3ccc([N+](=O)[O-])cc3nc2Nc2ccc(OC)c(C(F)(F)F)c2)cc1C(F)(F)F [Compound 35, N2, N3-bis(4-methoxy-3-(trifluoromethyl)phenyl)-6-nitroquinoxaline-2,3-diamine]",–,–,–,–,–,0.044,0.66,0.69,0.63,no appreciable activity,0,0,0,0,0.044,0.69,0.63,–
